From patent US20090082322A1, “Gender Differences in Experimental Aortic Aneurysm Formation” (THE REGENTS OF THE UNIVERSITY OF MICHIGAN, priority 2004, published 2009) come the findings set out here.

One data set concerns MMP-9. Put plainly: Aortic MMP-9 immunohistochemistry, ED-1 colocalization and quantitative PCR. It counts as in vivo, Sprague-Dawley rats. The text has this: (§1) In other experiments, male rats were randomized to implantation of an estrogen pellet or sham implantation (n=13, each). The former involved the subcutaneous implantation of a 21-day slow-release 0.1-mg 17-β-estradiol pellet (Innovative Research of America, Sarasota, Fla.) in the posterior neck. Sham rats underwent the same implantation procedure without insertion of any pellet. This particular estradiol dose results in serum estradiol levels at 2 to 3 weeks of 44.7±6.1 pg/mL compared with 15.0±2.2 pg/mL in control rats (P<0.05). Rat aortas from both groups were subjected to elastase perfusion 5 days later. The aortas were then removed for study 7 or 14 days after elastase perfusion.
Immunohistochemistry was undertaken after deparaffinization, rehydration, and unmasking using Trilogy (Cell Marque Corp, Hot Springs, Ariz.) in a Princess model pressure cooker (Cell Marque). Endogenous peroxidase activity was then blocked using 3% hydrogen peroxide in methanol. To help ensure that rejection was not occurring in elastase-perfused or transplanted animals, anti-T lymphocyte immunohistochemistry was performed. Specifically, antirat CD3 monoclonal antibody (BD Pharmingen, San Diego, Calif.) was used as the primary antibody and mouse IgG Vectastain (Vector Laboratories, Burlingame, Calif.) as the secondary antibody. Rat spleen was used as the positive control for anti-CD3 staining. […]
Expression of MMP-9 and β-actin mRNA was determined using quantitative PCR. […] The resultant cDNA was amplified by Taq Polymerase (Promega, Madison, Wis.) in a SmartCycler quantitative PCR system (Cepheid, Sunnyvale, Calif.). […]
MMP-9 forward primer, CGCCAACTATGACCAGGATA (SEQ ID NO: 1); MMP-9 reverse primer, GTT GCC CCC AGT TAC AGT (SEQ ID NO: 2); β-actin forward primer, ATGGGTCAGAAGGATTCCTATGTG (SEQ ID NO: 3); β-actin reverse primer, CTTCATGAGGTAGTCAGTCAGGTC (SEQ ID NO: 4). […] Quantification of mRNA levels used ΔCt values, calculated by the formula: […]
Expression of the target gene in ratio to β-actin expression was calculated by the formula: […]

The nature of data set [1]: Serum estradiol levels after pellet implantation. As to conditions: at 2 to 3 weeks, 21-day slow-release 0.1-mg pellet s.c.; control rats 15.0±2.2. Type of data set: in vivo.
Description: as §1
Male Sprague-Dawley rats (190 g to 210 g) were obtained from Charles River Laboratories. Subcutaneous neck implantation of a 21-day slow release 0.1 mg 17-β-estradiol pellet (Innovative Research of America) was performed under general inhalational anesthesia. This particular estradiol dose results in serum estradiol levels at 2 to 3 weeks of 44.7±6.1 pg/mL compared with 15.0±2.2 pg/mL in control rats (p<0.05). Three weeks after pellet implantation, the infrarenal aorta was explanted under general anesthesia. The aorta was briefly rinsed free of blood and debris with cold 1×PBS containing antibiotics, cut into 1-mm rings, and incubated for 48 hours in 1 mL of serum-free DMEM containing antibiotics and IL-1β. […]

For `C[C@]12CC[C@@H]3c4ccc(O)cc4CC[C@H]3[C@@H]1CC[C@@H]2O` [17-β-estradiol], in the data set on MMP-9 (immunohistochemistry, estradiol treated rats compared with sham rats), the “aortic MMP-9 staining” value was “less evident”. In addition, the “aortic MMP-9 mRNA expression” value in the data set with MMP-9 (quantitative PCR normalized to β-actin, 7 days after elastase perfusion, sham 0.12±0.04, P=0.11) is reported as 0.0017±0.004 mRNA copies. In the data set with MMP-9 (rats treated with estradiol compared with sham rats), the “colocalization of aortic ED-1 and MMP-9” value is “less prominently stained cells”. This compound had a serum estradiol levels in data set [1] of 44.7 ± 6.1 pg/mL.
